# Experimental data published in US20190134120A1, “METHODS FOR THE TREATMENT OF BLADDER CANCER” (Viralytics Limited, priority 2013, published 2019).
# Assays:
# [1] = tested on: ICAM-1; experiment: FACS analysis of ICAM-1 (CD54) expression after Mitomycin C pulse; assay type: cell-based, Human
# Description: (§1) FIG. 5: FACS analysis of ICAM-1/DAF express in bladder cancer cell line pulse with Mitomycin C (×0.5 fold IC50×1, ×2) for 1, 3, 7 and 24 hrs.
# (§2) In brief, bladder cancer cells were plated at 5×10^5 cells per well (2 ml) of a 6 well tray and incubated at 37° C. for 24 hrs. The cells were treated with Mitomycin C (2× fold IC50 1× fold IC50, 0.5× fold IC50) and each concentration incubated at 37° C. for 1, 3, 7 and 24 hrs. Therefore T24 cells were treated 0.75, 0.375, 0.1876 ug/ml Mitomycin C, 5637 cells were treated with 0.68, 0.34, 0.17 ug/ml Mitomycin C and KU19-19 cells were treated with 1.4876, 0.7438, 0.3719 ug/ml. The cells were trypsinised and centrifuged for 3 mins at 1500 rpm to a pellet and re-suspended in FACS Buffer (PBS containing 10% BSA and 1% sodium azide). 100 ul of cells were added to appropriate wells in a 96-well round-bottomed plate. Antibodies were prepared at 1:10 in FACS buffer CD54 PE (BD: 347977) mIgG2b, CD55 PE (BD: 555694) mIgG2a and Isotype controls. […] Samples were read on a MACSQuant™ Analyzer (Bench top flow cytometer).
# (§3) Exposure to the chemotherapy agent Mitomycin C, up-regulates both ICAM-1 and DAF at the RNA level (FIG. 4b). To mimic patient exposure to Mitomycin C T24, RU19-19 and 5637 cells were pulsed with drug for 1, 3, 7, 24 hrs and ICAM-1 and DAF expression was measured by FACS analysis at 24 hrs.
# [2] = tested on: DAF; experiment: FACS analysis of DAF (CD55) expression after Mitomycin C pulse; assay type: cell-based, Human; details: T24, RU19-19 and 5637 cells; short pulse (1-3 hrs); measured at 24 hrs
# Description: as §1, §2, §3
# [3] = tested on: DAF; experiment: QPCR for DAF expression after Mitomycin C; assay type: cell-based, Human; details: 5637 cancer cell line exposed to Mitomycin C
# Description: (§4) FIGS. 4A-B: QPCR for ICAM-1/DAF expression. FIG. 4a) On 5637 & T24 cancer cell lines 24 hrs after irradiation (Gy 4-10). FIG. 4b) On 5637 cancer cell line exposed to Mitomycin C.
# as §3
# [4] = tested on: ICAM-1; experiment: QPCR for ICAM-1 expression after Mitomycin C; assay type: cell-based, Human; details: 5637 cancer cell line exposed to Mitomycin C
# Description: as §4, §3
# [5] = tested on: KU19-19 cells; experiment: Mitomycin C IC50, KU19-19 cells; assay type: cell-based, Human; details: 1x fold IC50 treatment concentration
# [6] = tested on: 5637 cells; experiment: Mitomycin C IC50, 5637 cells; assay type: cell-based, Human; details: 1x fold IC50 treatment concentration
# [7] = tested on: CVA21; experiment: CVA21 viral replication in 5637 cells on exposure to MMC (TCID50 titration on SK-MEL-28); assay type: cell-based; details: CVA21 MOI 3, 0.4375 or 0.875 ug/ml Mitomycin C, 24 or 48 hours
# Description: Monolayers of 5637 bladder cancer cells were plated and incubated at 37° C./5% CO2 overnight. The media was removed, and CVA21 added at an MOI of 3 in 10% FCS medium containing 0, 0.4375 or 0.875 ug/ml Mitomycin C. The cells were then incubated at 37° C. for 24 or 48 hours. The plates were then frozen at −80° C. for 1 hour or o/n and then thawed after which cell CVA21 lysate was serially diluted 1:10 in 2% DMEM. The different concentrations of lysate were then added to SK-MEL-28 cells which had previously been plated at 1×10^4 cells per well (100 μL) in a 96 well plate in 10% DMEM. The assay was then incubated at 37° C. for 5 days, after which the media was removed from the cells and 100 ul of 0.1% Glutaldehyde (Sigma) in PBS was added. After an incubation of 10 mins at RT, the Glutaldehyde solution was removed and 100 ul of 0.1% w/v Crystal Violet solution (in 20% Ethanol) was added in order to visualise the cells. Following another incubation of 10 mins at RT the excess Crystal Violet was removed with tap water. TCID50 was calculated by the Spearman & Kärber algorithm as described in Hierholzer & Killington (1996), Virology Methods Manual, p. 374.
# [8] = tested on: T24 cells; experiment: Mitomycin C IC50, T24 cells; assay type: cell-based, Human; details: 1x fold IC50 treatment concentration
smiles,measurement,setting,value
"CO[C@@]12[C@H](COC(N)=O)C3=C(C(=O)C(C)=C(N)C3=O)N1C[C@@H]1N[C@@H]12 [Mitomycin C, mitomycin C]",ICAM-1 expression by FACS,"[1]; T24, RU19-19 and 5637 cells, short pulse (1-3 hrs), measured at 24 hrs",strongly amplified
same,ICAM-1 amplification,"[1]; one hour pulse of MMC, present from at least 4 hours after exposure",strong ICAM-1 amplification
same,DAF expression by FACS,[2],strongly amplified
same,DAF expression at the RNA level,[3],up-regulates
same,ICAM-1 expression at the RNA level,[4],up-regulates
same,IC50,[5],0.7438 µg/mL
same,IC50,[6],0.34 µg/mL
same,effect on CVA21 viral replication,[7],enhanced viral replication
same,IC50,[8],0.375 µg/mL
